From patent US20210139477A1, “ALK5 INHIBITORS, CONJUGATES, AND USES THEREOF” (Silverback Therapeutics, Inc., priority 2019, published 2021)

Molecular target: T1, ALK5 (Homo sapiens, UniProt P36897)
T1 construct: purchased Reaction Biology Corp (Malvern, Pa.)
T1 sequence (P36897 34-503): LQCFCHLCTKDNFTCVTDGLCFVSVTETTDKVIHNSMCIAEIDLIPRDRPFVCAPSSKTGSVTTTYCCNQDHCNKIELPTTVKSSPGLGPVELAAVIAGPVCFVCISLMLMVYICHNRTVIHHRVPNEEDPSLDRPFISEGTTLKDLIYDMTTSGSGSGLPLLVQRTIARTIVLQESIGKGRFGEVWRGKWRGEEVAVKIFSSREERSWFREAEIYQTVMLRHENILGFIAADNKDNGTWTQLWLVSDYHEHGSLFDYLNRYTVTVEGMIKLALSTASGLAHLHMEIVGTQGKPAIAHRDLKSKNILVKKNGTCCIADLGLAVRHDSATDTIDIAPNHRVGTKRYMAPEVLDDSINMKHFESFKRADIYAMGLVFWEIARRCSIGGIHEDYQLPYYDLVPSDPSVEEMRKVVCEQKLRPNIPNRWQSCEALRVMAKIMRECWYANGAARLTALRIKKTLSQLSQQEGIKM
Assay: ALK5 enzyme inhibition assay (Reaction Biology Corp, 33P-ATP filter-binding, casein substrate)
Assay type: biochemical
Conditions: 10 uM ATP, 2 hours at room temperature
Procedure: ALK5 enzyme inhibition assays were performed by Reaction Biology Corp (Malvern, Pa.). 1 mg/mL of peptide substrate (casein) and 10 uM ATP were prepared in a mixture of fresh reaction buffer. The kinase was delivered into the substrate solution which was gently mixed. Compounds in 100% DMSO were added to the kinase reaction mixture by Acoustic technology (Echo550; nanoliter range) and the mixture was incubated for 20 min at room temperature. ^33P-ATP (Specific activity 10 uCi/uL) was added into the reaction mixture to initiate the reaction and the reaction mixture was incubated for 2 hours at room temperature. Radioactivity was detected by filter-binding method and kinase activity data were expressed as the percent remaining kinase activity in test samples compared to vehicle (dimethyl sulfoxide) reactions. IC50 values and curve fits were obtained using Prism (GraphPad Software).

| IC50 [nM] | Compound |
| --- | --- |
| 0.1 to 50 | COC(=O)[C@@H](NCc1nc(-c2cccc(C)n2)c(-c2ccc3ncnn3c2)[nH]1)c1ccccc1 [Compound 16] |
| 1000 to 10000 | Cc1cccc(-c2nc(CN[C@@H](C)c3ccccc3)[nH]c2-c2ccc3ncnn3c2)n1 [Compound 12] |

Test system: TGFb/SMAD Signaling Pathway SBE reporter cell line
Assay: TGFb reporter assay (TGFb/SMAD Signaling Pathway SBE luciferase reporter cell line)
Assay type: cell-based
Conditions: 5-6 h preincubation, then TGFb, 18 h, luciferase luminescence
Procedure: TGFβ/SMAD Signaling Pathway SBE reporter cell line was obtained from BPS Bioscience. Cells were passed, expanded, and stored in liquid nitrogen as per the supplier's instructions with the exception that growth media is changed to DMEM-C with Geneticin (DMEM supplemented with 10% fetal bovine serum, 1×NEAA, 1 mM Pyruvate, 2 mM glutamine, 50 μg/mL penicillin, 50 U/mL streptomycin and 400 μg/mL of Geneticin). The assay media was MEM supplemented with 0.5% fetal bovine serum, 1×NEAA, 1 mM Pyruvate, 50 μg/mL penicillin and 50 U/mL streptomycin.
TGFb/SMAD Signaling Pathway SBE reporter cell line was obtained from BPS Bioscience. Cells were passed/expanded/stored in liquid nitrogen per supplier's instruction with the exception that growth media was changed to DMEM-C with Geneticin (DMEM supplemented with 10% fetal bovine serum, IX NEAA, 1 mM Pyruvate, 2 mM glutamine, 50 μg/mL penicillin, 50 U/mL streptomycin and 400 ug/mL of Geneticin). The assay media was MEM supplemented with 0.5% fetal bovine serum, IX NEAA, 1 mM Pyruvate, 50 μg/mL penicillin and 50 U/mL streptomycin.
Reporter cells were harvested from the tissue culture flasks by incubation in small quantity of Versene at room temperature for three to five minutes after the media in the flask was removed and cells rinsed with PBS. Cells were counted and diluted in the assay media at 0.8×10^6 cells/mL then 50 uL/well were added to 96-well assay plate. Test samples (at desired concentrations diluted in assay media) were added to assay plate containing the 50 uL/well of cells (or media only), 50 uL per well, and incubated for 5-6 hours at 37° C. in a 5% CO2 humidified incubator. After that time, 15 uL of TGFb diluted to 12.5 ng/mL in the assay media was added to the plate. Controls included TGFb titration (from 25 to 0 ng/mL) without inhibitors, and media only (without cells, inhibitor or TGFb). Plates were incubated at 37° C. in a […] humidified incubator for 18 h. Luciferase substrate solution was subsequently added at 75 uL per well, incubated in dark with shaking at room temperature for 10 min, and luminescence was measured using a luminometer.

| Compound | EC50 [nM] |
| --- | --- |
| Cc1cccc(-c2nc(CNCc3ccccc3-c3ccccc3CNC(=O)OC(C)(C)C)[nH]c2-c2ccc3ncnn3c2)n1 [Compound 29] | 100 to 1000 |
| Cc1cccc(-c2nc(CNCc3ccccc3-c3ccccc3CN)[nH]c2-c2ccc3ncnn3c2)n1 [Compound 32] | 100 to 1000 |
| COC(=O)[C@@H](NCc1nc(-c2cccc(C)n2)c(-c2ccc3ncnn3c2)[nH]1)c1ccccc1 [Compound 16] | 100 to 1000 |
| Cc1cccc(-c2nc(CNCc3ccccc3-c3cccc(CN)c3)[nH]c2-c2ccc3ncnn3c2)n1 [Compound 33] | 100 to 1000 |
| Cc1cccc(-c2nc(CNCc3ccccc3Oc3ccncc3)[nH]c2-c2ccc3ncnn3c2)n1 [Compound 55] | 1000 to 10000 |
| Cc1cccc(-c2nc(CN[C@@H](C)c3ccccc3)[nH]c2-c2ccc3ncnn3c2)n1 [Compound 12] | 100 to 1000 |
| Cc1cccc(-c2nc(CNCc3ccccc3-c3ccc(CNC(=O)OC(C)(C)C)cc3)[nH]c2-c2ccc3ncnn3c2)n1 [Compound 31] | 100 to 1000 |
| Cc1cccc(-c2nc(CNCc3ccccc3-c3ccccn3)[nH]c2-c2ccc3ncnn3c2)n1 [Compound 40] | 10 to 100 |

Other lines, results leading:

| EC50 [nM] | Compound |
| --- | --- |
| 0.1 to 10 | Cc1cccc(-c2nc(CNCCc3ccc(F)cc3F)[nH]c2-c2ccc3ncnn3c2)n1 [Compound 63] |
| 10 to 100 | Cc1cccc(-c2nc(CNCc3cccc(-c4ccccc4)c3C)[nH]c2-c2ccc3ncnn3c2)n1 [Compound 49] |
| 0.1 to 10 | Cc1cccc(-c2nc(CNCc3cccc(C)c3C)[nH]c2-c2ccc3ncnn3c2)n1 [Compound 45] |
| 0.1 to 10 | Cc1cccc(-c2nc(CNCCN(C)c3ccccc3)[nH]c2-c2ccc3nccnc3c2)n1 [Compound 88] |
| 0.1 to 10 | Cc1cccc(-c2nc(CNCCOc3ccccc3)[nH]c2-c2ccc3ncnn3c2)n1 [Compound 65] |
| 0.1 to 10 | Cc1cccc(-c2nc(CNCc3ccccc3N(C)C)[nH]c2-c2ccc3ncnn3c2)n1 [Compound 25] |
| 10 to 100 | Cc1cccc(-c2nc(CNCc3ccccc3-c3cc(F)cc(F)c3)[nH]c2-c2ccc3ncnn3c2)n1 [Compound 39] |
| 0.1 to 10 | Cc1cccc(-c2nc(CNCc3ccccc3F)[nH]c2-c2ccc3ncnn3c2)n1 [Compound 18] |
| 0.1 to 10 | Cc1cccc(-c2nc(CNCCCc3ccccc3)[nH]c2-c2ccc3ncnn3c2)n1 [Compound 64] |
| 0.1 to 10 | Cc1cccc(-c2nc(CNCc3ccccc3-c3ccccc3F)[nH]c2-c2ccc3ncnn3c2)n1 [Compound 38] |
| 0.1 to 10 | Cc1cccc(-c2nc(CNCCc3ccccc3F)[nH]c2-c2ccc3ncnn3c2)n1 [Compound 59] |
| 0.1 to 10 | CCc1ccccc1CNCc1nc(-c2cccc(C)n2)c(-c2ccc3ncnn3c2)[nH]1 [Compound 22] |
